Reference: PMC7024302, “Ultrashort Cationic Lipopeptides–Effect of N-Terminal Amino Acid and Fatty Acid Type on Antimicrobial Activity and Hemolysis” (Molecules, 2020)
≈ marks a conversion by molar mass, not a printed value. Residues, ends and D or L forms follow the SMILES beside them.

What was measured:
[1] = test system: A. baumannii ATCC BAA-1605; type: cell-based, Acinetobacter baumannii; settings: ATCC BAA-1605, 18 h
Source text: (§1) The Acinetobacter baumannii ATCC BAA-1605, Candida albicans ATCC 10231, Enterococcus faecium ATCC 700221, Klebsiella aerogenes ATCC 13048 (previously known as Enterobacter aerogenes), Klebsiella pneumoniae ATCC 700603, Pseudomonas aeruginosa ATCC 9027, Staphylococcus aureus ATCC 25923 and MRSA ATCC 33591, were acquired from the American Type Culture Collection (ATCC). Before running the tests, beads with cryo-protected microorganisms were transferred into fresh MHB (BioMaxima, Lublin, Poland) for bacteria or RPMI-1640 for fungi and incubated for 24 h at 37 °C. Then, the culture was seeded on the Mueller-Hinton agar (MHA) plates (BioMaxima, Lublin, Poland) for bacteria or Sabouraud dextrose agar (SDA) plates (BioMaxima, Lublin, Poland) for fungi and incubated as just mentioned. Cell densities for all assays were adjusted spectrophotometrically (Multiskan™ GO Microplate Spectrophotometer, Thermo Fisher Scientific, Vantaa, Finland) at 600 nm for bacteria and at 530 nm for fungi.
(§2) The MICs were determined by broth microdilution method according to the Clinical and Laboratory Standard Institute guidelines. For this purpose initial inoculums of bacteria (5 × 10^5 CFU/mL) in MHB (BioMaxima, Lublin, Poland) and fungi (2 × 10^3 CFU/mL) in RPMI-1640 with 2% D-glucose (Merck, Darmstadt, Germany) prepared with MOPS (pH 7.0 ± 0.1 at 25 °C; Merck, Darmstadt, Germany) were exposed to the ranging concentration of lipopeptides (0.5–256 µg/mL) and incubated at 37 °C for 18 h and 24 h respectively. The experiments were conducted on 96-well microtiter polystyrene plates (Kartell, Italy). The MIC was taken as the lowest peptide concentration at which a noticeable growth of microorganisms was inhibited. All experiments were conducted in triplicate.

[2] = test system: K. pneumoniae ATCC 700603; type: cell-based, Klebsiella pneumoniae; settings: ATCC 700603, 18 h
Source text: as §1, §2

K. aerogenes ATCC 13048 = type: cell-based, Klebsiella aerogenes; settings: ATCC 13048, 18 h
Source text: as §1, §2

C. albicans ATCC 10231 = type: cell-based, Candida albicans; settings: ATCC 10231, 24 h, pH 7
Source text: as §1, §2

[3] = Determination of peptide hydrophobicity with RP-HPLC (adjusted retention time); type: physicochemical; settings: for tR’: Table 3, adjusted retention time as hydrophobicity
Description: To determine peptide hydrophobicity, the Waters Alliance e2695 system with a Waters 2998 PDA Detector (software-Empower®3) was used. All analyses were carried out on a Phenomenex Luna C18(2) column (3.0 × 100 mm, 5 µm particle size, 100 Å pore size). The peptides were dissolved in water (0.1% TFA, v/v) to obtain a concentration of 1 g/L. UV detection at 214 nm was used, and aliquots (10 µL) were eluted with a linear 10–55% acetonitrile gradient in deionized water over 60 min at 25.0 ± 0.1 °C. The mobile phase flow rate was 0.5 mL/min. Both eluents contained 0.1% (v/v) of TFA. Each peptide sample was analyzed in triplicate.

S. aureus ATCC 25923 = type: cell-based, Staphylococcus aureus; settings: ATCC 25923, 18 h
Source text: as §1, §2

[4] = test system: S. aureus ATCC 33591 (MRSA); type: cell-based, Staphylococcus aureus; settings: ATCC 33591, 18 h
Source text: as §1, §2

E. faecium ATCC 700221 = type: cell-based, Enterococcus faecium; settings: ATCC 700221, 18 h
Source text: as §1, §2

P. aeruginosa ATCC 9027 = type: cell-based, Pseudomonas aeruginosa; settings: ATCC 9027, 18 h
Source text: as §1, §2

[5] = test system: human red blood cells (hRBCs); type: cell-based; settings: red cells of human, 1 h
Description: The hemolysis assay was performed as described earlier according to the method of Avrahami and Shai. Fresh human red blood cells (hRBCs) with anticoagulant (EDTA) were rinsed three times with a PBS (Merck, Darmstadt, Germany) by centrifugation at 800× g for 10 min and resuspended in PBS. Lipopeptides were serially diluted on 96-well microtiter polystyrene plate and hRBCs were added to reach final volume of 100 µL. Peptide concentration ranged between 0.5 and 256 µg/mL and final hRBCs concentration was 4% (v/v). Controls for zero hemolysis (blank) and 100% hemolysis consisted of hRBCs suspended in PBS and 1% of Triton-X 100 (Merck, Darmstadt, Germany), respectively. The plate was incubated for 1 h at 37 °C and then centrifuged (800× g, 10 min, 4 °C). Subsequently, supernatant was […] to new microtiter plates and absorbance at 540 nm were measured. All experiments were conducted in triplicate. Protocol of the study received approval from the local Bioethics Committee at the Medical University of Gdańsk (NKBBN/262/2019).

[6] = RP-HPLC C18, linear 10–55% acetonitrile over 60 min, 0.1% TFA, 25.0 °C, UV 214 nm, triplicate

Row | MIC A [1] [µg/mL] | MIC K [2] [µg/mL] | MIC E2 (K. aerogenes ATCC 13048) [µg/mL] | MIC CA (C. albicans ATCC 10231) [µg/mL] | tR’ (adjusted retention time) ([3]; Table 1 and b9, measure of hydrophobicity, RP-HPLC, Phenomenex Luna C18(2) 3.0 × 100 mm, 5 µm, linear 10–55% acetonitrile in water over 60 min, 0.1% TFA, 0.5 mL/min, 25.0 °C, UV 214 nm, peptide 1 g/L, triplicate) [min] | tR’ [3, 6] [min] | ∆tR ([3]; tR’ of the lipopeptide minus tR’ of C10-RR-NH2 or C12-RR-NH2, same RP-HPLC conditions) [min] | MIC SA (S. aureus ATCC 25923) [µg/mL] | MIC S [4] [µg/mL] | MIC E1 (E. faecium ATCC 700221) [µg/mL] | MIC PA (P. aeruginosa ATCC 9027) [µg/mL] | HC50 [5] | Adjusted retention time ([3]; Table 2, nC = carbon atoms in fatty acid chain, RP-HPLC C18, linear 10–55% acetonitrile over 60 min, 0.1% TFA, 25.0 °C, UV 214 nm, triplicate) [min] | Compound
1 | 64 (≈ 97.1 µM) | 256 (≈ 389 µM) | 256 (≈ 389 µM) | 8 (≈ 12.1 µM) | 41.45 | 41.45 | 8.87 | 4 (≈ 6.07 µM) | 8 (≈ 12.1 µM) | 8 (≈ 12.1 µM) | 8 (≈ 12.1 µM) | 91.21 (±16.38) µg/mL | – | CCCCCCCCCCCC(=O)N[C@@H](Cc1ccccc1)C(=O)N[C@@H](CCCNC(=N)N)C(=O)N[C@@H](CCCNC(=N)N)C(N)=O [compound 25, C12-FRR-NH2] (HELM PEPTIDE1{[CCCCCCCCCCCC(=O)[*:2]].F.R.R.[am]}$$$$V2.0)
2 | 128 (≈ 186 µM) | 64 (≈ 93.2 µM) | 64 (≈ 93.2 µM) | 2 (≈ 2.91 µM) | – | 47.75 | – | 4 (≈ 5.82 µM) | 32 (≈ 46.6 µM) | 16 (≈ 23.3 µM) | 8 (≈ 11.6 µM) | 39.09 (±1.18) µg/mL | – | CCCCCCCCCCCCCC(=O)N[C@@H](Cc1ccccc1)C(=O)N[C@@H](CCCNC(=N)N)C(=O)N[C@@H](CCCNC(=N)N)C(N)=O [compound 26, C14-FRR-NH2] (HELM PEPTIDE1{[CCCCCCCCCCCCCC(=O)[*:2]].F.R.R.[am]}$$$$V2.0)
3 | 64 (≈ 102 µM) | 256 (≈ 410 µM) | 256 (≈ 410 µM) | 16 (≈ 25.6 µM) | – | 39.05 | – | 8 (≈ 12.8 µM) | 8 (≈ 12.8 µM) | 8 (≈ 12.8 µM) | 16 (≈ 25.6 µM) | 120.40 (±1.55) µg/mL | 39.047 | CCCCCCCCCCCC(=O)N[C@H](C(=O)N[C@@H](CCCNC(=N)N)C(=O)N[C@@H](CCCNC(=N)N)C(N)=O)[C@@H](C)CC [compound 37, C12-IRR-NH2] (HELM PEPTIDE1{[CCCCCCCCCCCC(=O)[*:2]].I.R.R.[am]}$$$$V2.0)

Second part, the molecule before the results:

Row | Compound | MIC A [1] [µg/mL] | MIC K [2] [µg/mL] | MIC E2 (K. aerogenes ATCC 13048) [µg/mL] | MIC CA (C. albicans ATCC 10231) [µg/mL] | tR’ (adjusted retention time) ([3]; Table 1 and b9, measure of hydrophobicity, RP-HPLC, Phenomenex Luna C18(2) 3.0 × 100 mm, 5 µm, linear 10–55% acetonitrile in water over 60 min, 0.1% TFA, 0.5 mL/min, 25.0 °C, UV 214 nm, peptide 1 g/L, triplicate) [min] | tR’ [3, 6] [min] | ∆tR ([3]; tR’ of the lipopeptide minus tR’ of C10-RR-NH2 or C12-RR-NH2, same RP-HPLC conditions) [min] | MIC SA (S. aureus ATCC 25923) [µg/mL] | MIC S [4] [µg/mL] | MIC E1 (E. faecium ATCC 700221) [µg/mL] | MIC PA (P. aeruginosa ATCC 9027) [µg/mL] | HC50 [5] | Adjusted retention time ([3]; Table 2, nC = carbon atoms in fatty acid chain, RP-HPLC C18, linear 10–55% acetonitrile over 60 min, 0.1% TFA, 25.0 °C, UV 214 nm, triplicate) [min]
4 | CCCCCCCCCCCCCC(=O)NCC(=O)N[C@@H](CCCNC(=N)N)C(=O)N[C@@H](CCCNC(=N)N)C(N)=O [compound 30, C14-GRR-NH2] | 64 (≈ 107 µM) | 256 (≈ 429 µM) | 256 (≈ 429 µM) | 16 (≈ 26.8 µM) | – | 40.53 | – | 8 (≈ 13.4 µM) | 8 (≈ 13.4 µM) | 8 (≈ 13.4 µM) | 32 (≈ 53.6 µM) | 31.94 (±1.99) µg/mL | –
5 | CCCCCCCCCCCCCC(=O)N[C@@H](Cc1c[nH]cn1)C(=O)N[C@@H](CCCNC(=N)N)C(=O)N[C@@H](CCCNC(=N)N)C(N)=O [compound 34, C14-HRR-NH2] (HELM PEPTIDE1{[CCCCCCCCCCCCCC(=O)[*:2]].H.R.R.[am]}$$$$V2.0) | 128 (≈ 189 µM) | 256 (≈ 378 µM) | 256 (≈ 378 µM) | 16 (≈ 23.6 µM) | – | 35.80 | – | 16 (≈ 23.6 µM) | 16 (≈ 23.6 µM) | 8 (≈ 11.8 µM) | 64 (≈ 94.5 µM) | 50.31 (±0.52) µg/mL | –
